Measured values reported in patent EP4603105A1, “PHARMACEUTICAL COMPOSITION CONTAINING CYCLIC COMPOUND HAVING SELECTIVE KRAS INHIBITORY EFFECT AGAINST HRAS AND NRAS” (CHUGAI SEIYAKU KABUSHIKI KAISHA, priority 2022, dated 2024).
Read-outs that look alike come from different tables or passages of the source. Where a SMILES comes first, the peptide text is derived from it. Bridges are numbered along the chain shown (N, C = ends). [ ]: non-standard residue; d: D form. hPhe(3-Cl-4-CF3) = N[C@@H](CCc1ccc(C(F)(F)F)c(Cl)c1)C(=O)O; NPrPhe(4-CF3) = CCCN[C@@H](Cc1ccc(C(F)(F)F)cc1)C(=O)O; NMeGly(cPent) = CN[C@H](C(=O)O)C1CCCC1; Pro(4,4-F2) = O=C(O)[C@@H]1CC(F)(F)CN1; NMeD = CN[C@@H](CC(=O)O)C(=O)O; NMeL = CN[C@@H](CC(C)C)C(=O)O; NMeA = CN[C@@H](C)C(=O)O; Aze = O=C(O)[C@@H]1CCN1; Ac4c = NC1(C(=O)O)CCC1; Sar = CNCC(=O)O

What was measured:
[1] = target: HRAS wild-type protein (Homo sapiens, UniProt P01112); assay: Binding to HRAS by surface plasmon resonance (SPR), KD and KD ratio to KRAS
How it was run: (§1)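 Running buffer contained 10 µM GDP and 10 mM MgCl2 to keep RAS in the GDP state, with 4% DMSO at pH 7.4. Compounds were flowed at 100 µL/min in 75 s steps of rising concentration over captured biotin-Avi RAS at 30°C. Sensorgrams were fitted 1:1 for KD.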

[2] = tested on: human lung cancer strain NCI-H441; assay type: cell-based
How it was run: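 Step one: dispense the test compound in serial DMSO dilutions. Step three: add the reagent and measure […].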

[3] = target: GDP-bound NRAS wild-type protein (Homo sapiens, UniProt P01111); assay: Binding to NRAS by surface plasmon resonance (SPR), KD and KD ratio to KRAS
How it was run: as §1

[4] = ratio of KD value for HRAS wild-type protein to KD value for KRAS (SPR)
[5] = ratio of KD value for GDP-bound NRAS wild-type protein to KD value for KRAS (SPR)
[6] = ratio of KD for HRAS wild-type protein to KD for KRAS
[7] = NCI-H441 cells, 4 days, CellTiter-Glo, read-out: NCl-H441 IC50
[8] = ratio of KD for GDP-bound NRAS wild-type protein to KD for KRAS
[9] = ratio of the KD value with respect to HRAS wild-type protein to the KD value with respect to KRAS
[10] = ratio of the KD value with respect to GDP-bound NRAS wild-type protein to the KD value with respect to KRAS

GDP-bound NRAS wild-type protein, sequence (P01111 whole entry): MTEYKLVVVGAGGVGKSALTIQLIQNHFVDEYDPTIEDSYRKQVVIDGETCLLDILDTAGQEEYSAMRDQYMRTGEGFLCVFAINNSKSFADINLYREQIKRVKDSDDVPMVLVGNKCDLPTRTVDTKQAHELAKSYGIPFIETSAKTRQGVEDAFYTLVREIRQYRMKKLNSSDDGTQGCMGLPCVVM
HRAS wild-type protein, sequence (P01112 whole entry): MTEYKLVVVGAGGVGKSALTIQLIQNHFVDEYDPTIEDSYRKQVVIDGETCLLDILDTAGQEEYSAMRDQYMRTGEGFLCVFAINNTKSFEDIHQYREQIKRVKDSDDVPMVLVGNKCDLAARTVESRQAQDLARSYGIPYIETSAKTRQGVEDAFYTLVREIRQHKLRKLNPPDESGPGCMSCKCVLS

Structure (SMILES) | IC50 [2] [nM] | HRAS /KRAS [1, 4] | NRAS /KRAS [3, 5] | HRAS /KRAS [1, 6] | IC50 [2, 7] [nM] | NRAS /KRAS [3, 8] | HRAS /KRAS [1, 9] | NRAS /KRAS [3, 10]
CC[C@H](C)[C@@H]1NC(=O)[C@H](CC2CC2)N(C)C(=O)C[C@@H](C(=O)N2CCCC2)N(C)C(=O)[C@H](C2CCCC2)N(C)C(=O)C2(CCC2)NC(=O)[C@@H]2C[C@H](C)CN2C(=O)[C@H](CCc2cc(F)c(C(F)(F)F)c(F)c2)NC(=O)CN(C)C(=O)[C@H](Cc2ccc(C(F)(F)F)cc2)N2CC/C=C\C[C@@H](C2=O)N(C)C(=O)CN(C)C1=O [PP1510] | 34.5 | A (a compound having 10 or more and less than 20 is denoted as A) | AA (a compound having 20 or more is denoted as AA) |  |  |  |  | 
CCOC[C@H]1C(=O)N[C@@H]([C@@H](C)CC)C(=O)N(C)CC(=O)N(C)[C@H]2C/C=C\CCN(C2=O)[C@@H](Cc2ccc(C(C)(F)F)cc2)C(=O)N(C)CC(=O)N[C@@H](CCc2ccc(C(F)(F)F)c(OC)c2)C(=O)N2C[C@@H](C)C[C@H]2C(=O)NC2(CC(C)(C)C2)C(=O)N(C)[C@@H](C2CCCC2)C(=O)N(C)[C@H](C(=O)N(C)CC)CC(=O)N1C [PP2699] |  |  |  | B (a compound having 3 or more and less than 10 is denoted as B) | 14.2 | A (a compound having 10 or more and less than 20 is denoted as A) |  | 
CCC[C@H]1C(=O)N[C@@H]([C@@H](C)CC)C(=O)N(C)CC(=O)N(C)[C@H]2C/C=C\CCN(C2=O)[C@@H](Cc2ccc(C(F)(F)F)cc2)C(=O)N(C)CC(=O)N[C@@H](CCc2ccc(C(F)(F)F)c(CC)c2)C(=O)N2C[C@H](OCC)C[C@H]2C(=O)NC2(CC(C)(C)C2)C(=O)N(C)[C@@H](C2CCCC2)C(=O)N(C)[C@H](C(=O)N(C)C)CC(=O)N1C [PP2861] | 6.3 |  |  | B (a compound having 3 or more and less than 10 is denoted as B) |  | A (a compound having 10 or more and less than 20 is denoted as A) |  | 
CCC[C@H]1C(=O)N[C@@H]([C@@H](C)CC)C(=O)N(C)CC(=O)N(C)[C@H]2C/C=C\CCN(C2=O)[C@@H](Cc2ccc(C(F)(F)F)cc2)C(=O)N(C)CC(=O)N[C@@H](CCc2cc(F)c(C(F)F)c(OC)c2)C(=O)N2C[C@H](OCC)C[C@H]2C(=O)NC2(CC(C)(C)C2)C(=O)N(C)[C@@H](C2CCCC2)C(=O)N(C)[C@H](C(=O)N(C)C)CC(=O)N1C [PP2867] |  |  |  | A (a compound having 10 or more and less than 20 is denoted as A) | 17.1 | A (a compound having 10 or more and less than 20 is denoted as A) |  | 
CC[C@H](C)[C@@H]1NC(=O)[C@H](CC2CCC2)N(C)C(=O)C[C@@H](C(=O)N(C)C)N(C)C(=O)[C@H](C2CCCC2)N(C)C(=O)C2(CCC2)N(C)C(=O)[C@@H]2CCCN2C(=O)[C@H](CCc2cc(F)c(C(F)(F)F)c(F)c2)NC(=O)CN(C)C(=O)[C@H](Cc2ccc(C)cc2)N2CC/C=C\C[C@@H](C2=O)N(C)C(=O)CN(C)C1=O [PP1802] | 5.8 | B (a compound having 3 or more and less than 10 is denoted as B) | A (a compound having 10 or more and less than 20 is denoted as A) |  |  |  |  | 

Further lines, with some results ahead:

IC50 [2] [nM] | Structure (SMILES) | HRAS /KRAS [1, 4] | NRAS /KRAS [3, 5] | HRAS /KRAS [1, 6] | IC50 [2, 7] [nM] | NRAS /KRAS [3, 8] | HRAS /KRAS [1, 9] | NRAS /KRAS [3, 10]
47.8 | CC[C@H](C)[C@@H]1NC(=O)[C@H](CC(C)C)N(C)C(=O)C[C@@H](C(=O)N(C)C)N(C)C(=O)[C@H](C2CCCC2)N(C)C(=O)C2(CCC2)NC(=O)[C@@H]2C[C@@H](C)CN2C(=O)[C@H](CCc2ccc(C(F)(F)F)c(OC)c2)NC(=O)CN(C)C(=O)[C@H](Cc2ccc(C)cc2)N2CC/C=C\C[C@@H](C2=O)N(C)C(=O)CN(C)C1=O [PP1867] | B (a compound having 3 or more and less than 10 is denoted as B) | A (a compound having 10 or more and less than 20 is denoted as A) |  |  |  |  | 
2.4 | CCC[C@H]1C(=O)N[C@@H]([C@@H](C)CC)C(=O)N(C)CC(=O)N(C)[C@H]2C/C=C\CCN(C2=O)[C@@H](Cc2ccc(C)cc2)C(=O)N(C)CC(=O)N[C@@H](CCc2cc(F)c(C(F)(F)F)c(F)c2)C(=O)N2C[C@H](OCC)C[C@H]2C(=O)N(C)C2(CCC2)C(=O)N(C)[C@@H](C2CCCC2)C(=O)N(C)[C@H](C(=O)N(C)C)CC(=O)N1C [PP1793] | B (a compound having 3 or more and less than 10 is denoted as B) | A (a compound having 10 or more and less than 20 is denoted as A) |  |  |  |  | 
109 | CC[C@H](C)[C@@H]1NC(=O)[C@H](CC(C)C)N(C)C(=O)C[C@@H](C(=O)N2CCCC2)N(C)C(=O)[C@H](C2CCCC2)N(C)C(=O)C2(CCCC2)NC(=O)[C@@H]2CCCN2C(=O)[C@H](CCc2cc(F)c(C(F)(F)F)c(F)c2)NC(=O)CN(C)C(=O)[C@H](Cc2ccc(C(F)(F)F)cc2)N2CCCCC[C@@H](C2=O)N(C)C(=O)CN(C)C1=O [PP0509] |  |  |  |  |  | B (a compound having 3 or more and less than 10 is denoted as B) | B (a compound having 3 or more and less than 10 is denoted as B)
81.6 | CCC(CC)[C@H]1C(=O)N(C)[C@H](C(=O)N(C)C)CC(=O)N(C)[C@@H](COC)C(=O)N[C@@H]([C@@H](C)CC)C(=O)N(C)CC(=O)N(C)[C@H]2C/C=C\CCN(C2=O)[C@@H](Cc2ccc(C(F)(F)F)cc2)C(=O)N(C)CC(=O)N[C@@H](CCc2ccc(Cl)c(Cl)c2)C(=O)N2CCCCC[C@H]2C(=O)NC2(CC(C)(C)C2)C(=O)N1C [PP2972] |  |  | A (a compound having 10 or more and less than 20 is denoted as A) |  | AA (a compound having 20 or more is denoted as AA) |  | 
1.2 | CCCN1C(=O)[C@@H]2CCN2C(=O)[C@H](C)N(C)C(=O)[C@H]([C@@H](C)CC)NC(=O)[C@H](CC(C)C)N(C)C(=O)C[C@@H](C(=O)N(C)C)N(C)C(=O)[C@H](C2CCCC2)N(C)C(=O)C2(CCC2)NC(=O)[C@@H]2CC(F)(F)CN2C(=O)[C@H](CCc2ccc(C(F)(F)F)c(Cl)c2)NC(=O)CN(C)C(=O)[C@@H]1Cc1ccc(C(F)(F)F)cc1 [PP0437] ([NMeL]I[NMeA][Aze][NPrPhe(4-CF3)][Sar][hPhe(3-Cl-4-CF3)][Pro(4,4-F2)][Ac4c][NMeGly(cPent)][NMeD]-NMe2; lactam N-11) |  |  |  |  |  | B (a compound having 3 or more and less than 10 is denoted as B) | C (A compound having a KD ratio of 0.1 or more and less than 3 is denoted as C)
154 | CCO[C@@H]1C[C@H]2C(=O)NC3(CCC3)C(=O)N(C)[C@@H](C3CCCC3)C(=O)N(C)[C@H](C(=O)N(C)C)CC(=O)N(C)[C@@H](CC)C(=O)N[C@@H]([C@@H](C)CC)C(=O)N(C)CC(=O)N(C)[C@H]3CCCCCN(C3=O)[C@@H](Cc3ccc(C(F)(F)F)cc3)C(=O)N(C)CC(=O)N[C@@H](CCc3c(F)c(F)c(C(F)(F)F)c(F)c3F)C(=O)N2C1 [PP0891] |  |  | B (a compound having 3 or more and less than 10 is denoted as B) |  | B (a compound having 3 or more and less than 10 is denoted as B) |  | 
16.9 | CC[C@H](C)[C@@H]1NC(=O)[C@H](CC2CC2)N(C)C(=O)C[C@@H](C(=O)N2CCCC2)N(C)C(=O)[C@H](C2CCCC2)N(C)C(=O)C2(CCC2)NC(=O)[C@@H]2CC(F)(F)CN2C(=O)[C@H](CCc2cc(F)c(C(F)(F)F)c(F)c2)NC(=O)CN(C)C(=O)[C@H](Cc2ccc(C(F)(F)F)cc2)N2CC/C=C\C[C@@H](C2=O)N(C)C(=O)CN(C)C1=O [PP1512] | A (a compound having 10 or more and less than 20 is denoted as A) | AA (a compound having 20 or more is denoted as AA) |  |  |  |  | 
